Drawing on the NIST ThermoML archive (doi:10.1016/j.fluid.2007.12.007), this text covers speed of sound and viscosity for 4 compounds.

For the data set the following is noted: 101.33 kPa, Liquid.

± gives the expanded uncertainty stated by the source.

Regarding `CCC(C)O` (stereo not drawn) [butan-2-ol], the speed of sound came to 1232.6 ± 2.8 m/s (293.15 K); 1212.6 ± 2.7 m/s (298.15 K); 1194.6 ± 2.7 m/s (303.15 K); 1174.5 ± 2.7 m/s (308.15 K); 1155.9 ± 2.6 m/s (313.15 K); 1138.6 ± 2.6 m/s (318.15 K). Besides, the viscosity (293.15 K) is listed as 4.212 ± 0.43 mPa·s; the viscosity (298.15 K) is listed as 3.034 ± 0.094 mPa·s; the viscosity (303.15 K) worked out at 2.495 ± 0.076 mPa·s; the viscosity (308.15 K) is listed as 2.106 ± 0.064 mPa·s; the viscosity (313.15 K) is given as 1.784 ± 0.055 mPa·s; the viscosity (318.15 K) is 1.524 ± 0.048 mPa·s.
On to `NC=O` [formamide], for which the speed of sound (293.15 K) came to 1615.8 ± 3.3 m/s; the speed of sound (298.15 K) is 1601 ± 3.3 m/s; the speed of sound (303.15 K) came to 1589.2 ± 3.3 m/s; the speed of sound (308.15 K) turned out to be 1577.2 ± 3.3 m/s; the speed of sound (313.15 K) was 1565.1 ± 3.2 m/s; the speed of sound (318.15 K) is listed as 1553.1 ± 3.2 m/s. In addition, the viscosity stood at 3.654 ± 0.081 mPa·s (293.15 K); 3.322 ± 0.074 mPa·s (298.15 K); 2.966 ± 0.067 mPa·s (303.15 K); 2.653 ± 0.06 mPa·s (308.15 K); 2.404 ± 0.055 mPa·s (313.15 K); 2.219 ± 0.051 mPa·s (318.15 K).
With `CCCCO` [butan-1-ol], the speed of sound (293.15 K) is on record as 1262.4 ± 2.8 m/s; the speed of sound (298.15 K) came to 1242.6 ± 2.7 m/s; the speed of sound (303.15 K) was 1224.6 ± 2.7 m/s; the speed of sound (308.15 K) came out at 1207.6 ± 2.7 m/s; the speed of sound (313.15 K) is on record as 1189.2 ± 2.7 m/s; the speed of sound (318.15 K) was 1170 ± 2.6 m/s. The viscosity reads like this: (293.15 K) 2.936 ± 0.066 mPa·s; (298.15 K) 2.542 ± 0.058 mPa·s; (303.15 K) 2.275 ± 0.052 mPa·s; (308.15 K) 1.998 ± 0.046 mPa·s; (313.15 K) 1.744 ± 0.041 mPa·s; (318.15 K) 1.571 ± 0.037 mPa·s.
In the case of `OCCCCO` [1,4-butanediol], the speed of sound stood at 1616.4 ± 3.4 m/s (293.15 K); 1605.6 ± 3.4 m/s (298.15 K); 1595.9 ± 3.3 m/s (303.15 K); 1587.3 ± 3.3 m/s (308.15 K); 1579.8 ± 3.3 m/s (313.15 K); 1570.2 ± 3.3 m/s (318.15 K). For the same compound, the viscosity is 97.26 ± 4.5 mPa·s (293.15 K); 72.75 ± 1.9 mPa·s (298.15 K); 56.89 ± 0.56 mPa·s (303.15 K); 44.88 ± 0.75 mPa·s (308.15 K); 35.81 ± 0.6 mPa·s (313.15 K); 29.05 ± 0.5 mPa·s (318.15 K).
